Measurements: a compilation of properties of binary mixtures (doi:10.1021/acs.jpcb.5b11900)

Assay: xn = mol fraction of the nth substance listed
Details: 101 kPa

CCC[NH3+].O=[N+]([O-])[O-] + CCCC[NH3+].O=[N+]([O-])[O-]
x1 = 0.5
Details | electrical conductivity [S/m] | viscosity [mPa·s]
298.15 K | 0.606 | 80.6
303.15 K | 0.729 | 65.7
308.15 K | 0.866 | 54.2
318.15 K | 1.18 | 38.3
333.15 K | – | 24.4
338.15 K | – | 21.3
348.15 K | – | 16.7
353.15 K | – | 14.9

CC[NH3+].O=[N+]([O-])[O-] + CC[N+](CC)(CC)CC.O=[N+]([O-])[O-]
x2 = 0
Details | electrical conductivity [S/m] | viscosity [mPa·s]
293.15 K | 1.93 | 43.5
298.15 K | 2.25 | 36.5
303.15 K | 2.6 | 31
308.15 K | 2.97 | 26.5
313.15 K | 3.37 | 22.8
318.15 K | 3.78 | 20
323.15 K | 4.22 | 17.6
328.15 K | – | 15.6
333.15 K | – | 13.8
343.15 K | – | 11.2
348.15 K | – | 10.2
353.15 K | – | 9.2

CC[NH3+].O=[N+]([O-])[O-] + CC[NH2+]CC.O=[N+]([O-])[O-]
x2 = 0
Details | electrical conductivity [S/m] | viscosity [mPa·s]
288.15 K | 1.62 | –
293.15 K | 1.93 | 43.5
298.15 K | 2.25 | 36.5
303.15 K | 2.6 | 31
308.15 K | 2.97 | 26.5
313.15 K | 3.37 | 22.8
318.15 K | 3.78 | 20
328.15 K | – | 15.6
338.15 K | – | 12.5
348.15 K | – | 10.2
353.15 K | – | 9.21

CCCC[NH3+].O=[N+]([O-])[O-] + CC[NH3+].O=[N+]([O-])[O-]
Details | electrical conductivity, x2 = 0.25 [S/m] | electrical conductivity, x2 = 0.5 [S/m] | electrical conductivity, x2 = 0.75 [S/m] | viscosity, x2 = 0.25 [mPa·s] | viscosity, x2 = 0.5 [mPa·s] | viscosity, x2 = 0.75 [mPa·s]
288.15 K | – | 0.646 | – | – | – | –
293.15 K | 0.507 | 0.792 | 1.2 | 104.4 | 82.3 | 62
298.15 K | 0.615 | 0.951 | 1.43 | 83.7 | 66.6 | 50.6
303.15 K | 0.742 | 1.13 | – | 68.1 | 54.7 | –
308.15 K | – | 1.33 | 1.95 | – | 45.6 | 35.5
313.15 K | 1.03 | 1.54 | 2.24 | 47 | 38.5 | 30.6
318.15 K | 1.2 | 1.77 | 2.55 | 39.5 | 32.7 | 26
323.15 K | – | 2.02 | 2.88 | – | 28.1 | 22.6
328.15 K | – | – | – | 29 | 24.4 | 19.8
333.15 K | – | – | – | – | 21.3 | 17.6
338.15 K | – | – | – | – | 18.7 | –
343.15 K | – | – | – | – | 16.6 | 13.8
348.15 K | – | – | – | 17.2 | 14.8 | 12.4
353.15 K | – | – | – | – | – | 11.3

CCC[NH3+].O=[N+]([O-])[O-] + CC[NH3+].O=[N+]([O-])[O-]
x2 = 0.5
Details | electrical conductivity [S/m] | viscosity [mPa·s]
288.15 K | 0.991 | –
298.15 K | 1.42 | 53
308.15 K | 1.93 | 37.1
313.15 K | 2.22 | 31.6
323.15 K | 2.85 | 23.5
328.15 K | – | 20.5
333.15 K | – | 18.1
338.15 K | – | 16
343.15 K | – | 14.3
348.15 K | – | 12.8

CC[N+](CC)(CC)CC.O=[N+]([O-])[O-] + CC[NH3+].O=[N+]([O-])[O-]
Details | electrical conductivity [S/m] | viscosity [mPa·s]
293.15 K, x1 = 0.0501 | 1.56 | 50.7
293.15 K, x1 = 0.1 | 1.27 | 60.1
293.15 K, x1 = 0.2001 | 0.797 | 91.6
293.15 K, x1 = 0.2567 | 0.623 | 122
293.15 K, x1 = 0.2995 | 0.392 | 144
293.15 K, x1 = 0.35 | 0.359 | 211
298.15 K, x1 = 0.0501 | 1.83 | 42.2
298.15 K, x1 = 0.1 | 1.5 | 49.6
298.15 K, x1 = 0.15 | 1.21 | 60.4
298.15 K, x1 = 0.2001 | 0.96 | 74
298.15 K, x1 = 0.2567 | 0.762 | 96.9
298.15 K, x1 = 0.2995 | – | 114
298.15 K, x1 = 0.35 | 0.462 | 167
303.15 K, x1 = 0.1 | 1.76 | 41.4
303.15 K, x1 = 0.2001 | 1.14 | 60.7
303.15 K, x1 = 0.2567 | 0.912 | 78.3
303.15 K, x1 = 0.2995 | 0.594 | 91.3
308.15 K, x1 = 0.0501 | 2.44 | 30.3
308.15 K, x1 = 0.1 | 2.03 | 35.5
308.15 K, x1 = 0.15 | 1.65 | 41.9
308.15 K, x1 = 0.2567 | 1.08 | 64.1
308.15 K, x1 = 0.2995 | 0.715 | 74.2
308.15 K, x1 = 0.35 | 0.671 | 104
313.15 K, x1 = 0.0501 | 2.78 | 26
313.15 K, x1 = 0.15 | 1.91 | 35.6
313.15 K, x1 = 0.2001 | 1.56 | 42.4
313.15 K, x1 = 0.2567 | 1.26 | 53.4
313.15 K, x1 = 0.2995 | 0.848 | 61.3
313.15 K, x1 = 0.35 | 0.804 | 85.4
318.15 K, x1 = 0.0501 | 3.14 | 22.5
318.15 K, x1 = 0.1 | 2.65 | 26.1
318.15 K, x1 = 0.15 | 2.17 | 30.4
318.15 K, x1 = 0.2001 | 1.79 | 35.9
318.15 K, x1 = 0.2567 | 1.46 | 44.7
318.15 K, x1 = 0.35 | 0.948 | 69.4
323.15 K, x1 = 0.0501 | 3.52 | 19.7
323.15 K, x1 = 0.1 | 2.99 | 22.7
323.15 K, x1 = 0.2001 | 2.04 | 30.7
323.15 K, x1 = 0.2567 | 1.68 | 37.9
323.15 K, x1 = 0.2995 | 1.22 | 42.8
323.15 K, x1 = 0.35 | 1.11 | 57.6
328.15 K, x1 = 0.0501 | – | 17.3
328.15 K, x1 = 0.1 | – | 19.9
328.15 K, x1 = 0.15 | – | 22.8
328.15 K, x1 = 0.2995 | – | 36.4
333.15 K, x1 = 0.0501 | – | 15.3
333.15 K, x1 = 0.1 | – | 17.5
333.15 K, x1 = 0.2001 | – | 23.2
333.15 K, x1 = 0.2567 | – | 28.1
333.15 K, x1 = 0.2995 | – | 31.3
333.15 K, x1 = 0.35 | – | 41.5
338.15 K, x1 = 0.0501 | – | 13.7
338.15 K, x1 = 0.1 | – | 15.5
338.15 K, x1 = 0.15 | – | 17.7
338.15 K, x1 = 0.2001 | – | 20.3
338.15 K, x1 = 0.2567 | – | 24.3
338.15 K, x1 = 0.2995 | – | 27
338.15 K, x1 = 0.35 | – | 35.1
343.15 K, x1 = 0.0501 | – | 12.3
343.15 K, x1 = 0.1 | – | 13.6
343.15 K, x1 = 0.2001 | – | 18
343.15 K, x1 = 0.2567 | – | 21.4
343.15 K, x1 = 0.2995 | – | 23.6
343.15 K, x1 = 0.35 | – | 30.2
348.15 K, x1 = 0.0501 | – | 11.1
348.15 K, x1 = 0.1 | – | 12.2
348.15 K, x1 = 0.15 | – | 14.1
348.15 K, x1 = 0.2567 | – | 18.9
348.15 K, x1 = 0.2995 | – | 20.7
353.15 K, x1 = 0.0501 | – | 10
353.15 K, x1 = 0.15 | – | 12.7
353.15 K, x1 = 0.2001 | – | 14.4
353.15 K, x1 = 0.2567 | – | 16.9
353.15 K, x1 = 0.2995 | – | 18.4
